Drawing on a melting point compilation (Tetko et al.; mined from patent text by program, amines drawn as free bases though some values may be those of a salt), this text covers melting point for 92 compounds.

The term melting point denotes the temperature, or range, at which the solid turns liquid. In turn, `CCC(=O)NC(=S)NCC1CC2c3cccc4[nH]cc(c34)CC2N(C)C1` (configuration not stated) yielded a melting point of 225 to 226 °C.
For the compound `O=C1CCc2cc(-c3cccc(Cl)c3)ccc21`, the melting point worked out at 113 °C.
Then `COC(=O)CCc1cc2nc(Cl)ccc2n1S(=O)(=O)c1cccc2cccnc12`, with 120 °C; and `Cc1ncn(-c2ccc(C(=O)N3Cc4cccn4Cc4ccccc43)c(Cl)c2)n1`, with 191 to 193 °C; and `COc1ccc(-c2ccc3c(C#N)c(OC)ccc3c2)cc1`, with 182 to 185 °C.
In the case of `COC(=O)c1nc(N)sc1CCC(C)C`, the melting point is 108 to 110 °C.
Compound `CCOC(=O)c1cn(NC=O)c2c(OCc3ccccc3)c(F)c(F)cc2c1=O` had a melting point of 188 to 190 °C.
In turn, `Cn1nccc1OCc1c(S(C)(=O)=O)ccc(C(=O)O)c1Cl` registered a melting point of 197 °C.
Then `Nc1cc(F)cc2c(Cl)ccnc12`, with 98 to 103 °C; and `COc1cccc(OC)c1-c1ccc(C[C@H](NC(=O)c2c(Cl)ccc(Br)c2Cl)C(=O)O)cc1`, with 235 °C; and `COc1ccc(CN(CCCC(N)=O)Cc2ccc(OC)cc2)cc1`, with 53 to 54 °C.
In turn, `CCNc1nc(C(F)(F)F)nc(NCC)c1[N+](=O)[O-]` registered a melting point of 60 to 65 °C.
Compound `S=C(NCCCN1CCN(Cc2ccc(Cl)cc2)CC1)NC1CCCCC1` came in with a melting point of 127 to 128 °C.
As to `Cc1cnc2c(c1)CCCC2O` (configuration not stated), the melting point worked out at 58 °C.
As for `CC(=O)Nc1ccc(C)cc1Oc1c(NCc2ccccc2)cc(C(=O)O)cc1S(N)(=O)=O`, the figure is 203 °C.
The compound `CCCCNC(=O)c1cc([N+](=O)[O-])cnc1C` gave a melting point of 98 to 99 °C.
Take `O=C1CC(c2cccc(-n3ccnc3)c2)=Nc2ccc(-c3ccccc3)cc2N1`: the melting point fell in the range of 201 to 205 °C.
In turn, `O=c1cc(NCC2CCCO2)oc2c1ccc1ccccc12` (configuration not stated) returned a melting point of 139 to 140 °C.
Then `CCc1nc2c(n1C(CC)CC)C(=O)N(C)CN2c1ccc(Cl)cc1Cl`, with 132 to 133 °C.
The compound `Cc1ccnc2c1C(=O)c1ccccc1C2=O` displayed a melting point of 198 to 201 °C.
Compound `O=C(Nc1cc(=O)n(-c2c(Cl)cc(C(F)(F)F)cc2Cl)[nH]1)c1ccccc1` had a melting point of 288 °C.
Compound `CCCn1c(=O)c2c(nc(/C=C/c3ccc(O)c(OC)c3)n2C)n(CCC)c1=O` came in with a melting point of 187 to 188 °C.
Take `CC(C)Cc1ccc(C(C)C(=O)NCCCNC2=NCCN2)cc1` (configuration not stated): the melting point is 155 to 168 °C.
Consider `COc1ccc(S(=O)(=O)c2cc3c(cc2C)OC(C(=O)O)O3)cc1NC(C)=O` (configuration not stated), for which the melting point was found to be 230 °C.
The compound `COCC(C)n1nc(-c2cnc(N)nc2-c2ccccc2)ccc1=O` (configuration not stated) displayed a melting point of 180 to 181 °C.
Take `Cn1cc(C(=O)NCC(=O)NCC2(O)CCC2)c(C(F)(F)F)n1`: the melting point was determined as 210 °C.
As to `CCC1(CC(=NNc2ccc([N+](=O)[O-])cc2[N+](=O)[O-])C(=O)OC)CCCN2CCc3c([nH]c4ccccc34)C21` (configuration not stated), the melting point was 205 to 206 °C.
`CCc1ccc(C2COc3c(C)c(C)c(NC(=O)CC(C)(C)C)c(C)c32)cc1` (configuration not stated): the melting point is 162 to 163 °C.
As for `CC(=O)NC(=Cc1ccc(F)cc1)C(=O)OCCC(F)=C(F)F`, the melting point worked out at 116 °C.
Then `Cc1cc(C(F)(F)C(F)(F)F)ccc1NC(=O)c1ccc(Cl)c(Cl)c1C(=O)NC(C)C`, with 208 to 209 °C.
Compound `NC(=O)COC(=O)c1ccccc1` yielded a melting point of 118 °C.
In the case of `COc1ccc2c(c1)[C@@]1(C(=O)O)CCCC[C@H]1CC2` (relative stereo), the melting point fell in the range of 171 to 173 °C.
For `O=C(CCCCCOc1ccc(-c2ccccc2)cc1)NO`, the melting point lay in the range of 151 to 152 °C.
Compound `Cc1sc(-c2ccc(Cl)cc2)nc1O` displayed a melting point of 198 to 199 °C.
`O=C(CCN1CCN(c2ccc3c(c2)OCO3)CC1)c1csc2ccc(F)cc12` showed a melting point of 84 to 86 °C.
As for `CC(C)c1nccn1Cc1ccc2c(c1)Cc1c(-c3ccsc3)n[nH]c1-2`, the melting point fell in the range of 260 to 262 °C.
Take `CCC1(C)Cc2ccc(C(C)C(=O)O)cc2C1` (configuration not stated): the melting point was 165 to 167 °C.
In turn, `C=CCOc1cc(N2C(=O)c3ccccc3C2=O)c(F)cc1Cl` gave a melting point of 148 to 150 °C.
`CCOC(=O)C1=Cc2cc(Br)ccc2OCC1` returned a melting point of 86 to 87 °C.
Then `CC(=O)Nc1nc(O)c2cc(I)cnc2n1`, with > 280 °C; and `CCCCCC/C(=C\c1ccccc1)CNc1cccc(-c2ccnc3c(C(=O)c4cccs4)cnn23)c1`, with 110 to 115 °C.
As for `O=C(O)CCCCCCN1C(=O)c2ccccc2C1=O`, the figure is 112 to 115 °C; as for `CC(Nc1nc(NN)nc(Cl)c1-c1c(F)cccc1Cl)C(F)(F)F` (configuration not stated), 120 to 122 °C.
Then `O=[N+]([O-])c1nc(CC(O)C2CO2)c[nH]1` (configuration not stated), with 90 to 92 °C; and `CCCCc1nc2c(O)ccc(CCN(C)C)c2[nH]1`, with 97 to 105 °C.
In the case of `CC(C)C(NC(=O)OCc1ccccc1)P(O)O` (configuration not stated), the melting point lay in the range of 108 to 111 °C.
On to `CC=Cc1c(-c2ccc(S(C)(=O)=O)cc2)cnn(-c2ccc(F)c(F)c2)c1=O`, for which the melting point was 149 to 150 °C.
With `Cc1nc(N)nc(N)c1CCC(C)c1ccc(Cl)cc1` (configuration not stated), the melting point was in the range of 125 to 128 °C.
As to `NC(=O)c1nc[nH]c1F`, the melting point lay in the range of 253 to 254 °C.
As to `CC(=O)c1cccc(Nc2ccc3ccccc3n2)c1`, the melting point was 181 to 183 °C.
Compound `CCCCCc1ccc(OCC(O)CCCCCCC(=O)O)cc1` (configuration not stated) came in with a melting point of 105 to 106 °C.
Consider `CC1CCc2ccc(Cl)c3c(=O)c(C(=O)O)cn1c23` (configuration not stated), for which the melting point lay within 220 to 222 °C.
For the compound `CCn1c(=N)c(-c2ccsc2)cc2cnc(Nc3ccccc3)nc21`, the melting point was in the range of 220 to 222 °C.
As for `O=c1[nH]c(=O)n(CCO)c2ccccc12`, the figure is 274 °C; as for `CC(C)(C)C(=O)C(CCCCOc1ccccc1)n1cncn1` (configuration not stated), 59 to 62 °C; as for `O=C(c1ccccc1F)c1cc(Br)ccc1NC(=O)C(F)(F)F`, 132 °C.
Then `CNC(=O)c1cc(OC)c(C(=O)NC)c(NC(=O)CCl)c1OC`, with 228 to 229 °C; and `CC(=O)NCCCc1cccc2c1CCO2`, with 66 to 67 °C; and `CN(C)Cc1ccc(C(=O)CCC(=O)N2CCN(c3ccc(N4C[C@H](CNC(=S)C5CC5)OC4=O)cc3F)CC2)cc1`, with 174 to 175 °C.
Compound `CCN1C(=O)C(C)(C)C(=O)N(C)c2cc(CN(CCn3ccc4sccc4c3=O)Cc3cnccc3C)ccc21` returned a melting point of 145 to 147 °C.
Then `O=C(O)CCn1c(=O)c2ccccc2n(CCCCN2CCC(OC(c3ccccc3)c3ccccc3)CC2)c1=O`, with 107 to 108 °C; and `O=C(Nc1ccc(S(=O)(=O)C(F)(F)F)cc1Cl)c1cc(Cl)c2ccccc2c1O`, with 234 °C.
As for `CNS(=O)(=O)CC(N)=O`, the melting point lay within 104 to 108 °C.
As to `C[C@H](O)Cn1c(=O)c(Oc2ccc(F)cc2F)cc2cnc(N[C@@H](C)CO)nc21`, the melting point was 182 to 184 °C.
`COc1ccccc1C1=CC(=O)CCC1CC(=O)O` (configuration not stated) showed a melting point of 183 to 184 °C.
Take `COc1ncc(Br)cc1C(O)C=Cc1ccc(Cl)c(Cl)c1` (configuration not stated): the melting point lay within 149 to 150 °C.
With `COc1ccc(OC)c(SCCCCC#N)c1`, the melting point is 64 to 66 °C.
Turning to `COc1ccc(N2C(=O)[C@H](O[Si](C(C)C)(C(C)C)C(C)C)[C@@H]2CC(C)C)cc1`, the melting point was 59 to 60 °C.
As for `COc1ccc(C2(C#Cc3cccc(-c4nnc(C)s4)c3)CCC(O)CC2)cc1OC1CCCC1` (configuration not stated), the figure is 129 to 130 °C.
`CCOC(=O)C1=C(C)NC(C)=C(C(=O)OCC)C1c1csc2ccccc12` yielded a melting point of 139 to 142 °C.
In turn, `CC12CCC3C(CCC4(O)CC(O)CCC34CO)C1(O)CCC2c1ccnnc1` (configuration not stated) registered a melting point of 138 to 140 °C.
Consider `Oc1c2ncnc(S)c2nn1-c1ccccc1`, for which the melting point was > 300 °C.
In turn, `CC(C)(NC(=O)CCSC(=O)c1ccccc1)C(=O)O` had a melting point of 142 to 143 °C.
For `O=C(O)c1ccccc1-c1nnc(-c2cccc(C(F)(F)F)c2)o1`, the melting point lay within 141 to 159 °C.
Compound `CC(=C(C#N)N=CN(C)C)N1CCCC1` showed a melting point of 49 to 53 °C.
Compound `O=C(Cc1ccncc1)NC(Cc1ccc(Cl)c(Cl)c1)C(=O)CCc1cc(C(F)(F)F)cc(C(F)(F)F)c1` (configuration not stated) returned a melting point of 142 to 144 °C.
`O=C(O)c1ccc(NCCOc2ccccc2)cc1` came in with a melting point of 172 to 175 °C.
In the case of `CC(C)C(=S)Nc1ccc([N+](=O)[O-])c(C(F)(F)F)c1`, the melting point lay within 74 to 76 °C.
Compound `COC(=O)C(C)(C)OCc1cc2cc(Cl)ccc2n1S(=O)(=O)c1cc(OC)ccc1OC` gave a melting point of 132 to 134 °C.
In turn, `COc1ccc(Nc2cc(-c3ccccc3)nc(Nc3ccc(OC)c(Cl)c3)n2)cc1Cl` gave a melting point of 250 to 254 °C.
`CC1(C)Cc2c(c(N3CCCC3)nc3sc4c(NCCCN5CCCC5=O)ncnc4c23)CO1` registered a melting point of 217 °C.
Then `O=C1c2cc(NCCO)ccc2OC12CC2`, with 74 to 75 °C; and `CCC(=O)OC1(C(=O)CCl)C(C)CC2C3CCC4CC(=O)CCC4(C)C3(F)C(=O)CC21C` (configuration not stated), with 184 to 186 °C.
As for `C[C@H]1C=CC(S(=O)(=O)c2ccccc2)=C[C@H](C)[C@H]1O`, the figure is 100 to 102 °C; as for `CN1CCN(CC2(O)CC=Cc3ncccc32)CC1` (configuration not stated), 126 to 127 °C; as for `CCSC1COC(Cn2cncn2)(c2ccc(Cl)cc2Cl)C1` (configuration not stated), 64 °C.
Regarding `CCCCCc1c(C(C)C)nc(C(C)C)c(CO)c1-c1ccccc1O`, the melting point worked out at 126 °C.
Consider `CCCCCCCCCCC(O)Cn1ccnc1-c1ccccn1` (configuration not stated), for which the melting point was 62 to 65 °C.
`OC(CNc1ccc2ncnn2n1)CN1CCC(OC(c2ccccc2)c2ccccc2)CC1` (configuration not stated) displayed a melting point of 82 to 87 °C.
Consider `COC(=O)CN(c1ccc(OC)cc1OC)S(N)(=O)=O`, for which the melting point lay within 100 to 103 °C.
On to `COc1cc(N2CCNCC2)c2ncccc2c1`, for which the melting point was 105 to 107 °C.
As for `CC(CN)C1=CC(C)(C(=O)O)CC=C1` (configuration not stated), the figure is 236 to 238 °C.
